{
  "source": "ChEMBL document CHEMBL1201862",
  "about": "“PubChem BioAssay data set” (2004)",
  "key": {"[1]": {"experiment": "insulin promoter down-regulators in MIN6 cells, imaging, high-content screening, mouse beta cells (AID 1628)", "assay_type": "functional"}, "[2]": {"experiment": "cytotoxicity in MIN6 insulinoma cells, dose response, cytotoxicity control, cell-based, mouse insulinoma (AID 2122);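 further: confirmatory high-throughput counterscreen run to flag cytotoxic compounds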", "assay_type": "functional"}, "[3]": {"experiment": "C. albicans growth with fluconazole, confirmation, fluorescence, retest (AID 2467)", "assay_type": "functional, cell-based"}, "[4]": {"experiment": "NIH-3T3 fibroblast cytotoxicity, dose response, cytotoxicity control, cell-based, fluorescence, Alamar Blue, secondary assay (AID 2327);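 further: NIH-3T3 mouse fibroblasts cultured with fluconazole at 8 µg/mL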", "assay_type": "functional"}, "cells [5]": {"experiment": "cells", "assay_type": "functional, cell-based"}, "Vero": {"test_system": "Vero", "experiment": "cells", "assay_type": "functional", "conditions": "Chlorocebus sabaeus"}, "[6]": {"biological_target": "ATP-dependent molecular chaperone HSP82 (Candida albicans (strain WO-1) (Yeast), UniProt C4YTQ8)", "sequence (C4YTQ8 whole entry)": "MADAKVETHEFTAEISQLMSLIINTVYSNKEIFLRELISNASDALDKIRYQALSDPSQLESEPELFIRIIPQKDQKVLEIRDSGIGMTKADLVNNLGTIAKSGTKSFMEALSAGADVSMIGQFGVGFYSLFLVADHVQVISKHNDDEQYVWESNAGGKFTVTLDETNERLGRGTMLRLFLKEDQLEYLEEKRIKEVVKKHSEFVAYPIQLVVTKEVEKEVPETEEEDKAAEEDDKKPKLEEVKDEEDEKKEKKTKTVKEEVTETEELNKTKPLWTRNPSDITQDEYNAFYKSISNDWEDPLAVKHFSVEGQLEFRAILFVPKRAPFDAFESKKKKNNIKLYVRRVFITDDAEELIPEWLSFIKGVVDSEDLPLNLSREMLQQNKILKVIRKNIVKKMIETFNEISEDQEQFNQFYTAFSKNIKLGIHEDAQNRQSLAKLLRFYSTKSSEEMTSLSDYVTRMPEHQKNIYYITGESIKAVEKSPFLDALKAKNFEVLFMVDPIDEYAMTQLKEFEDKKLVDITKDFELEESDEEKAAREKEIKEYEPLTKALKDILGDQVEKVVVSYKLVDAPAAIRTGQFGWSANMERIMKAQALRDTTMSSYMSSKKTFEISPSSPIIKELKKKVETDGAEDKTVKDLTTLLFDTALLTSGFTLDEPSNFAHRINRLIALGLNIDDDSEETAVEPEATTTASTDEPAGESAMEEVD", "experiment": "loss of DOC-induced GRE-beta-galactosidase reporter signal, dose response, Hsp90 inhibitor project, S. cerevisiae, luminescence (AID 2400);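 further: beta-galactosidase luminescence from glucocorticoid response element reporter as proxy for Hsp90 function; inhibitor potency where signal loss means Hsp90 inhibition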", "assay_type": "functional, cell-based"}, "[7]": {"experiment": "cytotoxicity toward NIH3T3 fibroblasts, dose response, counter-screen, cell-based, ATP luminescence, mouse fibroblasts (AID 2010);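 further: cells exposed to compound for about 90 hours before reading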", "assay_type": "functional"}, "[8]": {"biological_target": "T1, Serine/threonine-protein phosphatase (Candida dubliniensis (strain CD36 / CBS 7987 / NCPF 3949 / NRRLY-17841) (Yeast), UniProt B9W6M3)", "T1 sequence (B9W6M3 whole entry)": "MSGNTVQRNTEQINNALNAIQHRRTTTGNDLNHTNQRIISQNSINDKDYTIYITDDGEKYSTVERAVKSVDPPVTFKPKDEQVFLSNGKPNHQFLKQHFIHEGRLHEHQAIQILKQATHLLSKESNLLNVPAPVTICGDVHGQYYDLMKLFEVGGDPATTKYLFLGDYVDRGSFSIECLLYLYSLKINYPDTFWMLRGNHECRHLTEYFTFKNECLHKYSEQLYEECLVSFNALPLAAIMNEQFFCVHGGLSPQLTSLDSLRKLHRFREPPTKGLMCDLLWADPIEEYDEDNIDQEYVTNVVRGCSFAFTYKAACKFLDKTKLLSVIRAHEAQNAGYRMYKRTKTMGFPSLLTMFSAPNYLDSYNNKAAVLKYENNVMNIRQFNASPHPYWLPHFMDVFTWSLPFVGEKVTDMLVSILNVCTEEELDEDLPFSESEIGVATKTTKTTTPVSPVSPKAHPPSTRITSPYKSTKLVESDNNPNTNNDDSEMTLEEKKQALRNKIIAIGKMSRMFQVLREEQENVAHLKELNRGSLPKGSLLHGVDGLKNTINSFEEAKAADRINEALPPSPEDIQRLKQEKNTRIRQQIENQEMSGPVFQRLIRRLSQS", "experiment": "calcineurin pathway inhibitors in yeast reporter, dose response, S. cerevisiae, CDRE-lacZ, luminescence, secondary (AID 2388);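 further: yeast reporter cells carrying a calcineurin-responsive lacZ construct stimulated with calcium chloride; luminescent beta-galactosidase reporter signal in whole cells rather than isolated phosphatase activity; potency for inhibition where a drop in reporter signal means calcineurin blockade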", "assay_type": "functional, cell-based"}, "[9]": {"experiment": "Counterscreen for AddAB inhibitors: absorbance-based bacterial cell-based high throughput dose response assay for inhibitors of bacterial viability. [Related pubchem assays (depositor defined):AID435030, AID449728, AID449731, AID488942, AID488955, AID488956]", "assay_type": "functional"}, "INS1": {"test_system": "INS1", "experiment": "beta cell apoptosis inhibitors, cytokine rescue, dose response, luminescence, retest (AID 449756);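 further: cell death triggered by IL-1 beta plus TNF-alpha plus IFN-gamma mixture; protective hits raise ATP signal compared with cytokine alone wells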", "assay_type": "functional, cell-based", "conditions": "Rattus norvegicus"}, "Exodeoxyribonuclease V": {"biological_target": "Exodeoxyribonuclease V (Escherichia coli (strain K12), UniProt P04993+P07648+P08394)", "sequence (P04993 whole entry)": "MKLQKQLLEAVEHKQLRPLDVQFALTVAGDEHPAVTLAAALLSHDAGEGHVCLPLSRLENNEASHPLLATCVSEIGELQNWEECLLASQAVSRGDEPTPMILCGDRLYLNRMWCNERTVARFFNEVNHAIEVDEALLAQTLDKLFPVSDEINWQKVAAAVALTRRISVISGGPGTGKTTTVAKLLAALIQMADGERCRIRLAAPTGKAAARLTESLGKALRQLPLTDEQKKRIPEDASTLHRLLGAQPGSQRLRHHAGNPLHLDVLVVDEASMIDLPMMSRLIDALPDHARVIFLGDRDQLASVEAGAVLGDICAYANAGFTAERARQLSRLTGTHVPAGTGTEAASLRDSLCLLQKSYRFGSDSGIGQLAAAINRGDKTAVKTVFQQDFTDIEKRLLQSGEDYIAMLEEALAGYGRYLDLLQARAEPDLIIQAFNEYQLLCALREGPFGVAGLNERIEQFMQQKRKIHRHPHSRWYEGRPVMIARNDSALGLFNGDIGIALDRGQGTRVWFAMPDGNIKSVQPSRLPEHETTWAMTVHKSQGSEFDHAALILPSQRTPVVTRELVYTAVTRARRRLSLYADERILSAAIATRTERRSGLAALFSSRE", "sequence (P07648 whole entry)": "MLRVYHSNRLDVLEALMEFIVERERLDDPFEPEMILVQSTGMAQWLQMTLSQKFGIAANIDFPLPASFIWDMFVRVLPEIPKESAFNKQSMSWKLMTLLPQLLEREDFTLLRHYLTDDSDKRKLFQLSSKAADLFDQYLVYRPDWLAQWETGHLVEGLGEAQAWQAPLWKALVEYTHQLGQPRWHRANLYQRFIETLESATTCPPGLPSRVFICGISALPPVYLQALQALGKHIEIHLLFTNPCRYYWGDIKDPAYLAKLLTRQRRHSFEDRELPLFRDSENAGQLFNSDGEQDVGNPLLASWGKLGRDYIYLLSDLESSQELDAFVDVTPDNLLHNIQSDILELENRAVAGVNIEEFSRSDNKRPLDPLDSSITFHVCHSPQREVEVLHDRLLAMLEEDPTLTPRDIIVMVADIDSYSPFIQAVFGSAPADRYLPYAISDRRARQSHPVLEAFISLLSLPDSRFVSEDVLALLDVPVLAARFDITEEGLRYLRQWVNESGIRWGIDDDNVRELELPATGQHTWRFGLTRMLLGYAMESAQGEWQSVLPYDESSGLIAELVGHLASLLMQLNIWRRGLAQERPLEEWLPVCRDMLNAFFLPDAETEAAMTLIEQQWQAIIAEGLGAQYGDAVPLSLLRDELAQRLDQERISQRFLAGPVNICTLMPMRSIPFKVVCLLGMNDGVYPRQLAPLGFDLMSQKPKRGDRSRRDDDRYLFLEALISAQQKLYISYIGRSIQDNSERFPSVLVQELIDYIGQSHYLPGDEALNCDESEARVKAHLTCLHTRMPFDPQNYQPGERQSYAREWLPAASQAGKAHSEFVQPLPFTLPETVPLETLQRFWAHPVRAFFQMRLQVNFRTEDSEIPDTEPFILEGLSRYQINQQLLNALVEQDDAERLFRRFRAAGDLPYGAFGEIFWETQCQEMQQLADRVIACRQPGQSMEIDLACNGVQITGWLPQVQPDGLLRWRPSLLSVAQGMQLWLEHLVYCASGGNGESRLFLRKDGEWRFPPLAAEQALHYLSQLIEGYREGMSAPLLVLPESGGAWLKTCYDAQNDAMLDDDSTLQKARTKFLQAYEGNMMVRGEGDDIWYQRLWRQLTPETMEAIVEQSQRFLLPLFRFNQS", "sequence (P08394 whole entry)": "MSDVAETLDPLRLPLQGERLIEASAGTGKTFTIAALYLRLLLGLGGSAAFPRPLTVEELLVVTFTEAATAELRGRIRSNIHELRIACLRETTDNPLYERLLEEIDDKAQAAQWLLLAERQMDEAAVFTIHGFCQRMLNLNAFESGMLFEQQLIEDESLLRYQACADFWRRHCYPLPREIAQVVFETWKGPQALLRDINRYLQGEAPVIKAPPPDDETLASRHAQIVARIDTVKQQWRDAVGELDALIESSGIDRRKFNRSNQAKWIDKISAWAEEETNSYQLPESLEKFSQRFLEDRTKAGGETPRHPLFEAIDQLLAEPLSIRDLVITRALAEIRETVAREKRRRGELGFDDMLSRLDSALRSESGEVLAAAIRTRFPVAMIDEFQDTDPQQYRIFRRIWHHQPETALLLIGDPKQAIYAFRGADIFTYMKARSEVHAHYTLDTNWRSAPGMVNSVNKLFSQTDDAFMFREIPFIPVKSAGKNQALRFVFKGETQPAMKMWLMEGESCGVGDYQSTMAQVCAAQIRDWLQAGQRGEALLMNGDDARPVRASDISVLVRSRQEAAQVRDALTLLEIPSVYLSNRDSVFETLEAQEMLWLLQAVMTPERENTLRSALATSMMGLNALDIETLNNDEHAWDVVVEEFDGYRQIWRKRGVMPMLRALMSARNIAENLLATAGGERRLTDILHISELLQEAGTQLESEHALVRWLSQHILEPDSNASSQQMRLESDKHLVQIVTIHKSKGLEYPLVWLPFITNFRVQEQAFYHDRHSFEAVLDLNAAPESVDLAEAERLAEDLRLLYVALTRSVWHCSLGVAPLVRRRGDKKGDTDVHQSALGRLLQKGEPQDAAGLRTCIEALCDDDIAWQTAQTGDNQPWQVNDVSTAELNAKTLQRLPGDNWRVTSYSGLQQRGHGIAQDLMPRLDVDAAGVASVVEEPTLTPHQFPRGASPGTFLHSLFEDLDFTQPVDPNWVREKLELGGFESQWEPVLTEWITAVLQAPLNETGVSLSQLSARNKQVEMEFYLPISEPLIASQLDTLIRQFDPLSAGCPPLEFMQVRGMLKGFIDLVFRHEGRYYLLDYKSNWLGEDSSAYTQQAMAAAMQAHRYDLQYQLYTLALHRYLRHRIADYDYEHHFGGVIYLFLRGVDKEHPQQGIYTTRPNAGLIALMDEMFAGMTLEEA", "experiment": "E. coli RecBCD inhibitors, dose response, counter-screen for AddAB inhibitor project, absorbance, V66 E. coli, mutant T4 phage (AID 492957)", "assay_type": "functional, cell-based, Escherichia coli str. K-12 substr. MG1655"}, "cells [10]": {"experiment": "cells", "assay_type": "functional, cell-based", "remark": "listed apart in the source"}, "[11]": {"biological_target": "Heat shock protein HSP 90-alpha (Homo sapiens, UniProt P07900)", "assay_type": "functional, organism-based"}, "[12]": {"experiment": "inhibitors of intracellular T. cruzi replication, confirmation, NIH3T3 host cells, beta-gal luminescence (AID 2044);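 further: luminescent beta-galactosidase reporter signal from transgenic T. cruzi replicating inside host cells; inhibitors lower the luminescence signal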", "assay_type": "functional, cell-based"}, "HEK293 [13]": {"test_system": "HEK293", "experiment": "cells", "assay_type": "functional, cell-based", "conditions": "Homo sapiens"}, "HEK293 [14]": {"test_system": "HEK293", "experiment": "cells", "assay_type": "functional, cell-based", "conditions": "Homo sapiens", "remark": "listed apart in the source"}, "HEK293 [15]": {"test_system": "HEK293", "experiment": "NOD2 signaling inhibitors in MDP-stimulated cells, cell-based, uHTS, luminescence (AID 2001)", "assay_type": "functional", "conditions": "Homo sapiens"}, "HEK293 [16]": {"test_system": "HEK293", "experiment": "NOD1 signaling inhibitors, primary screen, cell-based, luminescence, uHTS (AID 1578)", "assay_type": "functional", "conditions": "Homo sapiens"}},
  "note": "The source made the active and inactive calls.",
  "data": [
    {"smiles": "CC(=O)Nc1ccc(S(=O)(=O)N(C)CCOCc2ccccc2)cc1", "values": [
      {"measurement": "IC50", "setting": "[1]", "result": "1.82 µM (active)"},
      {"measurement": "IC50", "setting": "[2]", "result": "1.48 µM (active)"}
    ]},
    {"smiles": "CCC(=O)NC(c1cccs1)c1cc(Cl)c2cccnc2c1O", "note": "(centres undefined)", "values": [
      {"measurement": "EC50", "setting": "[3]", "result": "0.48 µM (active)"},
      {"measurement": "EC50", "setting": "[4]", "result": "34.7 µM (active)"},
      {"measurement": "EC50", "setting": "cells [5]", "result": "> 350 µM (not active)"},
      {"measurement": "CC50", "setting": "Vero", "result": "3.84 µM (active)"},
      {"measurement": "EC50", "setting": "[6]", "result": "> 150 µM (inactive)"},
      {"measurement": "EC50", "setting": "[7]", "result": "1.13 µM (active)"},
      {"measurement": "EC50", "setting": "[8]", "result": "> 180 µM (inactive)"},
      {"measurement": "IC50", "setting": "[9]", "result": "> 119 µM (inactive)"},
      {"measurement": "AC50", "setting": "INS1", "result": "1.28 µM (active)"},
      {"measurement": "IC50", "setting": "Exodeoxyribonuclease V", "result": "> 119 µM (inactive)"},
      {"measurement": "EC50", "setting": "cells [10]", "result": "61.3 µM (active)"},
      {"measurement": "AC50", "setting": "[11]", "result": "3.61 µM (active)"},
      {"measurement": "EC50", "setting": "[12]", "result": "0.692 µM (active)"}
    ]},
    {"smiles": "CCCCCOc1ccc(/C=C/c2c([N+](=O)[O-])c(=O)n(C)c(=O)n2C)cc1", "values": [
      {"measurement": "IC50", "setting": "HEK293 [13]", "result": "> 20 µM (inactive)"},
      {"measurement": "IC50", "setting": "HEK293 [14]", "result": "> 20 µM (inactive)"},
      {"measurement": "IC50", "setting": "HEK293 [15]", "result": "8.94 µM (active)"},
      {"measurement": "EC50", "setting": "HEK293 [16]", "result": "> 20 µM (inactive)"}
    ]}
  ]
}
